Results as given in US6368788B1 (priority 1987, dated 2002).
Marks after values point to notes of the source that are not given here.

Legend:
[1] = system: peripheral blood lymphocytes; test: Chernobyl Protocol F: L-Glu-L-Trp at 3 years post-radiation exposure; format: in vivo, human
Experimental: An increased incidence of cancer is one sequelae known to occur in subjects exposed to radiation, presumably because of decreased immune surveillance and elimination of tumor cells. […] An attempt to normalize immune parameters was attempted in 70 of the latter patients exposed 3 years previously to 0.2-0.5 Gy of radiation at Chernobyl. […] The subjects were treated with L-Glu-L-Trp in an attempt to alleviate the immune defects. The treatment course consisted of daily doses of 100 μg L-Glu-L-Trp administered im for 3-5 days. Sixty three subjects, similarly exposed to radiation in Chernobyl were used as untreated controls.

[2] = system: peripheral blood lymphocytes; test: Protocol A3 Group 2: pyoderma in patients with SLE; format: in vivo, human
Text: Group 2 constituted 22 patients with diagnosed forms of systemic lupus erythematosus (SLE): ie., 14 males and 8 females ranging in age from 21 to 62 years of age. The time since presentation with a diagnosis of SLE in this patient population ranged from several months to 18 years. All SLE patients in this trial had dermal manifestations of lupus erythematosus that included discoid disseminated forms of the disease. All patients had experienced chronic and recurrent episodes of pyoderma, and all had previously received conventional therapy, including use of antibiotics, delagil, and external corticosteroid ointments without effect. Patients in Group 2 were randomly divided into two treatment groups, the first consisting of 13 patients (9 men and 4 women) treated with L-Glu-L-Trp according to Therapy A, below, and the second consisting of 9 patients (5 men and 4 women) treated (as a control) according to Therapy B, ie., conventional therapeutic methods using anti-malarial preparations and vasoactive agents according to standard dosages and schedules.
In treatment Protocol A, all patients received L-Glu-L-Trp in combination with antibiotics. […]
Local antibiotics were administered as follows: Ampicillin (4), oxacillin (4), Levomycetin (1), tetracycline (9), Rondomycin (2), deoxycycline (8), cephalexin (2), and Rifampicin (1).

Herpes vulgaris = conditions: in combination with interferon; 7-10 outbreaks per year before
[3] = Group 2 pyoderma in SLE, after L-Glu-L-Trp Therapy (n = 13)

## L-Glu-L-Trp
[1]; After L-Glu-L-Trp
  B-Ig+, %: 11.0 ± 0.3%
  B-Ig+, abs: 0.23 ± 0.04 10^9/L
  B-IgA+, %: 1.9 ± 0.3%
  B-IgA+, abs: 0.04 ± 0.002 10^9/L
  B-IgG+, %: 4.8 ± 0.5%
  B-IgG+, abs: 0.09 ± 0.007 10^9/L
  B-IgM+, %: 4.1 ± 0.6 %
  B-IgM+, abs: 0.12 ± 0.003** 10^9/L
  CD2-DR+, %: 32 ± 3 %
  CD2-DR+, abs: 0.66 ± 0.10** 10^9/L
  CD3, %: 59.2 ± 2.1 %
  CD3, abs: 1.21 ± 0.15 10^9/L
  CD4, %: 36.2 ± 1.7%
  CD4, abs: 0.74 ± 0.08 10^9/L
  CD8, %: 23.2 ± 2.1 %
  CD8, abs: 0.48 ± 0.07** 10^9/L
  IgA: 1.2 ± 0.4 g/L
  IgG: 10.9 ± 1.3 g/L
  IgM: 1.06 ± 0.06 g/L
  LMI, %: 75 ± 6 %
  Leukocytes, abs: 5.6 ± 0.4 10^9/L
  Lymphocytes, abs: 2.1 ± 0.3 10^9/L
  T4/T8: 1.58 ± 0.04
[1]; in vivo
  Cases with restoration of CD2+ counts: 85%
  Clinical outcome: disappearance of symptoms associated with the asthenic syndrome
[2]; [3]
  B-Lymphocytes: 0.16 ± 0.01 ×10^9/L
  B-Lymphocytes % Normal Value: (52%)
  B-Lymphocytes (%): 6.8 ± 0.9%
  Basophils (%): 0.1 ± 0.1%
  Blast Transformation, Con-A: 64.1 ± 6.5 % of PBL
  Blast Transformation, PHA: 47.4 ± 3.5 % of PBL
  Eosinophils (%): 2.2 ± 0.1%
  Erythrocytes: 4.7 ± 0.1 10^12/L
  IgA: 2.85 ± 0.32 g/L
  IgA % Normal Value: (150%)
  IgG: 14.8 ± 1.27 g/L
  IgG % Normal Value: (137%)
  IgM: 0.92 ± 0.12 g/L
  IgM % Normal Value: (58%)
  Leukocytes: 5.74 ± 0.12 ×10^9/L
  Leukocytes % Normal Value: (86%)
  Lymphocytes: 2.17 ± 0.21 ×10^9/L
  Lymphocytes % Normal Value: (78%)
  Lymphocytes, %: 36.4 ± 2.3%
  Monocytes, %: 8.0 ± 0.7%
  Neutrophils: 3.5 ± 0.7 ×10^9/L
  Neutrophils, %: 55.3 ± 4.2%
  Neutrophils, % Normal Value: (106%)
  T-Lymphocytes: 1.13 ± 0.07 ×10^9/L
  T-Lymphocytes % Normal Value: (66%)
  T-Lymphocytes (%): 44.3 ± 2.7%
  T-helper: 0.87 ± 0.12 ×10^9/L
  T-helper % Normal Value: (66%)
  T-helper (%): 26.5 ± 2.7%
  T-suppressor: 0.53 ± 0.03 ×10^9/L
  T-suppressor % Normal Value: (136%)
  T-suppressor (%): 21.2 ± 3.7%
[2]; human, in vivo
  Clinical outcome: leads to a positive clinical effect and resolution of dermal rashes
Herpes vulgaris
  Outbreaks after treatment: less than one outbreak per year
